How the values were obtained:
Format in all cases: cell-based, human
[1] = test system: T cell lines primed in vitro to Der p I; assay: secondary proliferation of Der p I-primed T cell lines (Examples V, VII, XI); conditions: for T cell response to Der f I peptides / T cell response to selected Der f I peptides: Der p I primed; for T cell response to Der f I peptides: 14 positive experiments, FIG. 7; for T cell response to selected Der f I peptides: 30 positive experiments, FIG. 15a; for T cell response to selected Der p I peptides: FIG. 13; for positivity index (P.I.): mean S.I. × percent responders, 33 patients
Experimental: 10^7 PBMC from individual 543 were cultured in 10 ml RPMI-1640 containing 5% pooled human AB serum and supplemented with glutamine, penicillin, streptomycin and HEPES buffer in the presence of 20 μg/ml purified native Der p I/ml at 37° C. for 7 days. Viable cells were then purified by Ficoll-Hypaque centrifugation and cultured for 2 additional weeks in RPMI-1640/5% AB serum containing 5 units recombinant human IL-2/ml and 5 units recombinant human IL-4/ml. The resting T cells were then tested in a secondary proliferation assay to assess T cell responses to various house dust mite proteins and peptides. For assay, 2×10^4 resting T cells were cultured in 200 μl of RPMI-1640/5% AB serum for 3 days at 37° C. in the presence of 2×10^4 autologous Epstein-Barr virus transformed B cells (20,000 Rads) as antigen presenting cells with various concentrations of purified native Der p I or synthetic Der p I peptides. Each well then received 1 μCi tritiated thymidine for 16 hours. The counts incorporated were collected onto glass fiber filters and processed for liquid scintillation counting. Medium alone, acting as negative control, contained no allergen or peptide. The results of this experiment indicate that this particular patient responds with an S.I. of at least 2.0 to several peptides derived from the Der p I protein, including DP I-1, DP I-2, DP I-4, DP I-11, DP I-5, DP I-13, DP I-15, DP I-6.1, DP I-8, DP I-9, DP I-16, DP I-10 and DP I-17 (data not shown).
The above procedure was followed with a number of other house dust mite allergic individuals except a) in individual cases, the length of time of cultivation with IL-2 and IL-4 varied; b) in individual cases, the T cells were primed with either purified native (N) or recombinant (R) Der p I protein at either 20 μg/ml or 10 μg/ml; and c) in individual cases, x-irradiated (3500 Rads) autologous PBMC were used as antigen presenting cells in the secondary proliferation assay.
Individual results were considered positive and used if the individual responded to the Der p I protein and at least one peptide derived from Der p I at an S.I. of 2.0 or greater. The resting T cell lines primed with recombinant or native Der p I-stimulated PBMC were tested for reactivity to synthetic Der p I peptides. The maximum response for each peptide in a titration of the antigen is expressed as the T cell stimulation index (S.I.). The S.I. is the counts-per-minute (CPM) incorporated by cells in response to the peptide divided by the CPM incorporated by cells in medium only. […] However, only individual S.I. values greater than or equal to 2.0 (a response two-fold or greater over background), referred to herein as "positive" results, were used in calculating mean T cell stimulation indices for each peptide for the patient or group of patients tested. […] The T cell stimulation index is calculated by: [formula]
The bar represents the cumulative rank of the peptide response in the group of patients. To determine the cumulative rank, the 5 peptides with the highest S.I. in each individual were determined and assigned a numerical rank in descending order, with 5 representing the strongest response. The ranks for each peptide were then summed in the group of patients to determine the cumulative rank for the peptide. […] Given the percent positive and the mean T cell stimulation index, the positivity index (P.I.) for each peptide can be calculated.
The Der p I and Der f I proteins are very homologous (81% identity). Thus, experiments, similar to those of Example V, were carried out to determine the T cell responses of Der p I primed T cell lines when challenged with various Der p I peptides and substantially matching […].
The results of T cell studies using selected peptides derived from the Der p I, the Der f I, the Der p II and the Der f II proteins are shown in FIGS. 13-18a-d. […]

[2] = test system: T cell lines primed in vitro to Der f I; assay: secondary proliferation of Der f I-primed T cell lines (Examples VI, VII, XI); conditions: for T cell reactivity: overlapping Der f I peptides, 16 positive experiments, FIG. 6; for T cell response: patient 783, recombinant Der f I primed, data not shown; for stimulation index, rank in group: 9 patients, FIG. 16a / 16b
Experimental: Experiments similar to those of Example V were performed to determine. the T cell-reactive areas of the Der f I protein. For example, PBMC from house dust mite-allergic patient 783 were isolated as described in Example V and were stimulated in vitro-- with recombinant purified Der f I at 20 μg/ml. The results of the proliferation assay with Der f I peptides using x-irradiated (3500 Rads) autologous PBMC as antigen presenting cells indicate that T cells from this patient respond to the peptides DF I-8.1, DF I-9, DF I-6, DF I-10, DF I-2.1, DF I-3, DF I-11, DF I-5, DF I-1, and DF I-17 (data not shown).
The above procedure was followed in a number of patients except in individual cases, T cell lines were primed with affinity purified Der f I at 20 μg/ml or at 10 μg/ml and x-irradiated (25,000 Rads) autologous Epstein-Barr virus transformed B cells were used as antigen presenting cells. […]
Similarly, the procedure described in Example VI was followed with T cell lines from 9 patients primed in vitro to the Der f I protein then analyzed for response to selected peptides derived from the protein. The data was analyzed as described in Example VI. […]

[3] = test system: T cell lines primed in vitro to Der p II; assay: secondary proliferation of Der p II-primed T cell lines (Examples VIII, X, XI); conditions: for T cell reactivity: overlapping Der p II peptides, FIG. 9; for T-cell reactivity (DPII-22 series development): Der p II T-cell map and analogs
Experimental: Experiments similar to those of Example V were performed to determine the T cell-reactive areas of the Der p II protein. For example, PBMC from house dust mite-allergic patient 348 were isolated as described in Example V and were stimulated in vitro with 20 μg/ml purified native Der p II.
The above procedure was followed with a number of patients except in individual cases, T cell lines were primed with recombinant Der p II at 20 μg/ml or at 3 μg/ml and x-irradiated (3500 Rads) autologous PBMC were used as antigen-presenting cells. The data was analyzed as described in Example V, except the ranked sum of peptide responses was analyzed assigning a value of 3, 2 or 1 to the three highest S.I. responses.
A study similar to that described in Example VII was carried out to determine the T cell cross-reactivity of the Der p II and Der f II proteins. T cells primed with the Der f II protein were challenged with various Der f II peptides and a set of substantially matching Der p II peptides.
Another experiment following the procedure described in Example VIII analyzed the response of 29 patients primed in vitro to the Der p II protein and challenged with selected peptides derived from the Der p II sequence.

DF I-1: Der f I peptide, amino acid residues 1-20 (TSACRINSVNVPSELDLRSLR)
T cell response to Der f I peptides [1]: respond significantly
T cell reactivity [2]: significant areas of T cell reactivity
T cell response [2]: respond

DF I-2.1: Der f I peptide (ELDLRSLRTVTPIRMQGGCGSCWAFSG)
T cell response [2]: respond

DF I-3: Der f I peptide (TVTPIRMQGGCGSCWAFSGVAATESAYLA)
T cell response to Der f I peptides [1]: respond significantly
T cell reactivity [2]: significant areas of T cell reactivity
T cell response [2]: respond

DF I-4: Der f I peptide (VAATESAYLAYRNTSLDLSEQ)
T cell response to Der f I peptides [1]: respond significantly
T cell reactivity [2]: significant areas of T cell reactivity

DF I-5: Der f I peptide (GDTIPRGIEYIQQNGVVEERSYPYVARE)
T cell reactivity [2]: significant areas of T cell reactivity
T cell response [2]: respond

DF I-6: Der f I peptide (YPPDVKQIREALFQTHTAIAVIIG)
T cell response to Der f I peptides [1]: respond significantly
T cell reactivity [2]: significant areas of T cell reactivity
T cell response [2]: respond

DF I-7: Der f I peptide (TQTHTAIAVIIGIKDLRAFQHYDGRT)
T cell reactivity [2]: significant areas of T cell reactivity

DF I-8.1: Der f I peptide (IKDLRAFQHYDGRTIIQHDNGYQPNY)
T cell reactivity [2]: significant areas of T cell reactivity
T cell response [2]: respond

DF I-10: Der f I peptide (QGDDYWIVRNSWDTTWGDSGYGYF)
T cell response [2]: respond

DF I-11: Der f I peptide (YRNTSLDLSEQELVDCASQHGC)
T cell response to Der f I peptides [1]: respond significantly
T cell reactivity [2]: significant areas of T cell reactivity
T cell response [2]: respond

DF I-12: Der f I peptide (ELVDCASQHGCHGDTIPRGIE)
T cell response to Der f I peptides [1]: respond significantly

DF I-14: Der f I peptide (QRCRRPNSQHYGISNYCQI)
T cell reactivity [2]: significant areas of T cell reactivity

DF I-15: Der f I peptide (HYGISNYCQIYPPDVKQIREAL)
T cell response to Der f I peptides [1]: respond significantly

DF I-17: Der f I peptide (GDSGYGYFQAGNNLMMIEQYPYVVIM)
T cell response [2]: respond

DF I-21.1: Der f I peptide (TSACRINSVNVPSELDLRSLRTVTPIRMQ)
T cell response to selected Der f I peptides [1]: respond significantly

DF I-21.2: Der f I peptide (RINSVNVPSELDLRSLRTVTPIRMQ)
T cell response to selected Der f I peptides [1]: respond significantly

DF I-22.1: Der f I peptide (AFSGVAATESAYLAYRNTSLDLSEQELVD)
stimulation index, rank in group [2]: highest stimulation indexes

DF I-23.1: Der f I peptide (EYIQQNGVVEERSYPYVAREQRCRRPNSQ)
T cell response to selected Der f I peptides [1]: respond significantly

DF I-23.2: Der f I peptide (DTIPRGIEYIQQNGVVEERSYPYVAREQR)
T cell response to selected Der f I peptides [1]: respond significantly

DF I-25.1: Der f I peptide (QIYPPDVKQIREALTQTHTAIAVIIGIKD)
T cell response to selected Der f I peptides [1]: respond significantly
stimulation index, rank in group [2]: highest stimulation indexes

DF I-26.1: Der f I peptide (IIGIKDLRAFQHYDGRTIIQHDNGYQ)
T cell response to selected Der f I peptides [1]: respond significantly

DF I-27.1: Der f I peptide (HDNGYQPNYHAVNIVGYGSTQGDDY)
T cell response to selected Der f I peptides [1]: respond significantly

DF II-18: Der f II peptide (DAKYTWNVPKIAPKSENVVVTVKLVG)
T cell response to Der f II peptides ([3]; Der p II primed, 26 positive experiments, FIG. 12): respond significantly

DP I-5: Der p I peptide (GDTIPRGIEYIQHNGVVQESYYRYVARE)
T cell reactivity ([1]; overlapping Der p I peptides, 33 positive experiments): significant regions of T cell reactivity
T cell response to Der p I peptides ([2]; Der f I primed, 8 positive experiments, FIG. 8): respond significantly

DP I-22.1: Der p I peptide (AFSGVAATESAYLAHRNQSLDLAEQELVD)
T cell response to selected Der p I peptides ([1]; 33 positive experiments): respond significantly

DP I-23.2: Der p I peptide (DTIPRGIEYIQHNGVVQESYYRYVAREQS)
T cell response to selected Der p I peptides ([1]; 33 positive experiments): respond significantly
positivity index (P.I.) [1]: at least 150

DP I-25.2: Der p I peptide (QIYPPNANKIREALAQTHSAIA)
T cell response to selected Der p I peptides ([1]; 33 positive experiments): respond significantly
positivity index (P.I.) [1]: at least 150

DP I-28.1: Der p I peptide (NIVGYSNAQGVDYWIVRNSWDTNWGDNGY)
T cell response to selected Der p I peptides ([1]; 33 positive experiments): respond significantly

DP II-2: Der p II peptide (HEIKKVLVPGCHGSEPCIIHRGKPF)
T cell reactivity ([3]; 26 positive experiments): significant T cell reactivity
T cell response ([3]; patient 348, native Der p II primed, data not shown): responds well

DP II-3.1: Der p II peptide, native sequence (HGSEPCIIHRGKPFQLEAVFEANQNTKTA)
difference in mean S.I. or percentage of positive responses, original vs additional (native sequence) peptides ([3]; DP II-3 vs DP II-3.1): no significant difference
T-cell reactivity (DPII-22 series development) [3]: high T-cell reactivity

DP II-3: Der p II peptide with a low number of conservative changes from the native sequence (HGSEPCIIHRGKPFQLEAVFEAVQNTKTA)
T cell reactivity ([3]; 26 positive experiments): significant T cell reactivity

DP II-5: Der p II peptide (KIEIKASIDGLEVDVPGIDPNACHYMK)
T-cell reactivity (DPII-22 series development) [3]: high T-cell reactivity
